One data set deals with cancer. The data set is described as follows: Anti-cancer activity (test not specified).
The subject of data set [1] is P388/BCNU (carmustine-resistant) leukemia. The experiment in a line: Antitumor activity against IP-implanted P388/BCNU leukemia. As to conditions: Q1D × 1 (1).
In the next data set the test system is P388/0 murine leukemia. The conditions noted are these: Q1D × 1 (1).
Data set [2] deals with P388/CPA (cyclophosphamide-resistant) leukemia. In kind it is in vivo, CD2F1 female mice. As to conditions: Q1D × 1 (1).
For data set [3], the system named is human MX-1 mammary tumor (ic, 10^6 cells). The experiment in a line: In vivo antitumor activity, i.c.-implanted MX-1 xenograft. The conditions noted are these: Days 1-5.
The test system of data set [4] is human MX-1 mammary tumor (sc, 30-40 mg fragments). The data set is described as follows: In vivo antitumor activity, s.c.-implanted MX-1 xenograft. Also on record: species or system Athymic mice (Ncr-nu). As to conditions: for antitumor activity (in words): MX-1 implanted s.c. or i.c.
Where [5] appears, read: oral (gavage) 135 mg/kg/dose, Days 13-17.
The mark [6] stands for this setting: oral (gavage) 135 mg/kg/dose, Days 12-16.

Read-outs that look alike come from different tables or passages of the source.

`CCOc1nc(C(Cl)(Cl)Cl)c(Cl)c(OCC)c1Cl` [3,5-dichloro-4,6-diethoxy-2-(trichloromethyl)pyridine]: the “anti-cancer activity (in words)” value in the data set on cancer is “active anti-cancer activity”.

In the case of `CCOc1c(Cl)c(OC)nc(C(Cl)(Cl)Cl)c1Cl` [3,5-dichloro-4-ethoxy-6-methoxy-2-(trichloromethyl)pyridine], the “anti-cancer activity (in words)” value with cancer was “active anti-cancer activity”.

As to `O=NN(CCCl)C(=O)NCCCl` [BCNU (carmustine), carmustine], the “50-DAY SURV./TOTAL” value in data set [1] (IP 20.0 mg/kg/dose) was 0/6; in data set [1] (IP 30.0 mg/kg/dose), 0/6; in the data set with P388/0 murine leukemia (IP 20.0 mg/kg/dose), 3/6; with P388/0 murine leukemia (IP 30.0 mg/kg/dose), 6/6. The figures for the “% ILS” value in data set [1] (IP 20.0 mg/kg/dose) and in data set [1] (IP 30.0 mg/kg/dose) were 0% and −6%, respectively. Also, the “MEDIAN DAY OF DEATH” value in data set [1] (IP 30.0 mg/kg/dose) is 8.5.

`O=P1(N(CCCl)CCCl)NCCCO1` (stereo not shown) [CPA (cycloposphamide), cyclophosphamide]: the “50-DAY SURV./TOTAL” value in data set [2] (IP 175.0 mg/kg/dose) is listed as 0/6; in data set [2] (IP 265.0 mg/kg/dose), 0/6; in the data set with P388/0 murine leukemia (IP 175.0 mg/kg/dose) it was 1/6; with P388/0 murine leukemia (IP 265.0 mg/kg/dose), 6/6. Further, the “% ILS” value in data set [2] (IP 175.0 mg/kg/dose) is recorded as “+9%”; in data set [2] (IP 265.0 mg/kg/dose), “+27%”; in the data set with P388/0 murine leukemia (IP 175.0 mg/kg/dose), “+172%”. For the same compound, the entries for the “APPROX. NET LOG10 CHANGE IN TUMOR BURDEN AT END OF Rx” value (in data set [2] (IP 175.0 mg/kg/dose); in data set [2] (IP 265.0 mg/kg/dose); in the data set with P388/0 murine leukemia (IP 175.0 mg/kg/dose)) were −0.6, −1.7 and “ca −6.8”, respectively.

For the compound `COc1nc(C(Cl)(Cl)Cl)c(Cl)c(OC(=O)COC(C)=O)c1Cl` [DM-AA-PEN], in data set [3] (IP 135 mg/kg/dose), the “Median % ILS (dying mice only)” value is recorded as “+67%” and the Tumor-Free-Surv/Total is reported as 0/5. In addition, in data set [3] (oral (gavage) 135 mg/kg/dose), the “Median % ILS (dying mice only)” value is listed as “+115%” and the Tumor-Free-Surv/Total is listed as 2/5.

In the case of `C=CC(=O)Oc1c(Cl)c(OC)nc(C(Cl)(Cl)Cl)c1Cl` [DM-AC-PEN], in data set [3] (IP 60 mg/kg/dose), the “Median % ILS (dying mice only)” value is listed as “+55%” and the Tumor-Free-Surv/Total was 0/5. In data set [4] (IP 60 mg/kg/dose, Days 12-16), the T-C came out at 30.0 days and the Tumor-Free-Surv/Total is reported as 1/5.

As to `COc1nc(C(Cl)(Cl)Cl)c(Cl)c(OC(=O)c2ccccc2)c1Cl` [DM-B-PEN], the figures for the “Median % ILS (dying mice only)” value in data set [3] (IP 335 mg/kg/dose) and in data set [3] (oral (gavage) 135 mg/kg/dose) were “+84%” and “+12%”, respectively. The Tumor-Free-Surv/Total in data set [3] (IP 335 mg/kg/dose) is 0/5; in data set [3] (oral (gavage) 135 mg/kg/dose), 0/5; in data set [4] (IP 135 mg/kg/dose, Days 11-15) it was 5/5; in data set [4] (setting [5]) it was 0/5. In addition, the T-C in data set [4] (IP 135 mg/kg/dose, Days 11-15) is more than 42.7 days; in data set [4] (setting [5]) it was -1.4 days. In addition, the “antitumor activity (in words)” value in data set [4] (i.p. administration) was “high activity”; in data set [4] (oral drug treatment), “low antitumor activity”. The “oral absorption (in words)” value in data set [4] (inferred from MX-1 results (s.c. or i.c.), oral treatment) is recorded as “oral absorption was poor”.

With `COc1nc(C(Cl)(Cl)Cl)c(Cl)c(OC(=O)CBr)c1Cl` [DM-BA-PEN], in data set [4] (IP 135 mg/kg/dose, Days 12-16), the T-C was more than 41.0 days and the Tumor-Free-Surv/Total is listed as 2/5.

On to `COc1nc(C(Cl)(Cl)Cl)c(Cl)c(OC(=O)CCl)c1Cl` [DM-CA-PEN], for which, in data set [3] (oral (gavage) 135 mg/kg/dose), the “Median % ILS (dying mice only)” value is listed as “+84%” and the Tumor-Free-Surv/Total is 2/5. For the same compound, in data set [4] (IP 60 mg/kg/dose, Days 12-16), the T-C is given as more than 41.0 days and the Tumor-Free-Surv/Total is 3/5. Moreover, in data set [4] (setting [6]), the T-C is recorded as more than 41.0 days and the Tumor-Free-Surv/Total is recorded as 5/5.

Take `COc1nc(C(Cl)(Cl)Cl)c(Cl)c(OC(=O)c2ccc(CCl)cc2)c1Cl` [DM-CMB-PEN]: in data set [3] (IP 90 mg/kg/dose), the “Median % ILS (dying mice only)” value is reported as “+73%” and the Tumor-Free-Surv/Total was 0/5.

Turning to `COC(=O)CCC(=O)Oc1c(Cl)c(OC)nc(C(Cl)(Cl)Cl)c1Cl` [DM-CMP-PEN], the results for the “Median % ILS (dying mice only)” value in data set [3] (IP 90 mg/kg/dose) and in data set [3] (oral (gavage) 90 mg/kg/dose) were “+87%” and “+76%”, respectively. Moreover, the Tumor-Free-Surv/Total in data set [3] (IP 90 mg/kg/dose) was 1/5; in data set [3] (oral (gavage) 90 mg/kg/dose), 1/5; in data set [4] (IP 135 mg/kg/dose, Days 11-15) it was 3/5; in data set [4] (setting [5]) it was 2/5. Further, the T-C in data set [4] (IP 135 mg/kg/dose, Days 11-15) was more than 42.7 days; in data set [4] (setting [5]), more than 38.5 days.

Take `COc1nc(C(Cl)(Cl)Cl)c(Cl)c(OC(=O)C(Cl)Cl)c1Cl` [DM-DCA-PEN]: in data set [4] (IP 135 mg/kg/dose, Days 12-16), the T-C is given as more than 38.6 days and the Tumor-Free-Surv/Total was 2/5.

(Values after US6495571B1, “Pyridine compounds, use and preparation thereof” (Southern Research Institute, priority 1999, dated 2002).)
